Consider 15 compounds from ChEMBL document CHEMBL1130455, “Synthesis and antirheumatic activity of novel tetrahydro-6-quinolineacetic acid derivatives” (1997).

What all share (format): functional
In test [1] the test system is Rattus norvegicus. Briefly: Inhibitory effect on adjuvant arthritis in rats at a dose of 12.5 mg/kg, (the value is obtained by comparison between the non-injected paw volumes of the arthritic and control).
For test [2], the species on record is Ovis aries. As to the kind of experiment: In vitro inhibitory effect of anti-sheep erythrocyte IgM antibody-producing cells, (value is obtained by the number of IgM-PFC in the tested group and that in the control) at a concentration of 2*10e-6M.
Test [3] concerns Mus musculus. Briefly: Inhibitory effect on vascular permeability in mice [inhibitory rate of compound 100 mg/kg administered perorally]/[inhibitory rate of diclofenac-Na 25 mg/kg administered perorally].
Test [4] concerns Rattus norvegicus. Briefly: Inhibitory effect on adjuvant arthritis in rats at a dose of 25 mg/kg, (the value is obtained by comparison between the non-injected paw volumes of the arthritic and control).
Test [5] concerns Rattus norvegicus. Briefly: Inhibitory effect on adjuvant arthritis in rats at a dose of 100 mg/kg (the value is obtained by comparison between the non-injected paw volumes of the arthritic and control).
Test [6] deals with Rattus norvegicus. As to the kind of experiment: Inhibitory effect on adjuvant arthritis in rats at a dose of 25 mg/kg (the value is obtained by comparison between the non-injected paw volumes of the arthritic and control).
The subject of test [7] is Rattus norvegicus. As to the kind of experiment: Inhibitory effect on adjuvant arthritis in rats at a dose of 50 mg/kg (the value is obtained by comparison between the non-injected paw volumes of the arthritic and control).
Test [8] has as its system Rattus norvegicus. Briefly: Inhibitory effect on adjuvant arthritis in rats at a dose of 25 mg/kg (the value is obtained by comparison between the non-injected paw volumes of the arthritic and control).
For test [9], the system named is Rattus norvegicus. Briefly: Inhibitory effect on adjuvant arthritis in rats at a dose of 12.5 mg/kg (the value is obtained by comparison between the non-injected paw volumes of the arthritic and control).
For test [10], the system named is Rattus norvegicus. As to the kind of experiment: Inhibitory effect on adjuvant arthritis in rats at a dose of 10 mg/kg (the value is obtained by comparison between the non-injected paw volumes of the arthritic and control).
For test [11], the system named is Mus musculus. Briefly: Inhibitory effect on vascular permeability in mice [inhibitory rate of compound 50 mg/kg administered perorally]/[inhibitory rate of diclofenac-Na 25 mg/kg administered perorally].
For test [12], the system named is Rattus norvegicus. As to the kind of experiment: Inhibitory effect on adjuvant arthritis in rats at a dose of 25.0 mg/kg (the value is obtained by comparison between the non-injected paw volumes of the arthritic and control). Particulars: for inhibition in vivo at 25 mg/kg: Rattus norvegicus.
The subject of test [13] is Rattus norvegicus. Briefly: Inhibitory effect on adjuvant arthritis in rats at a dose of 12.5 mg/kg (the value is obtained by comparison between the non-injected paw volumes of the arthritic and control).
The species entered for test [14] is Rattus norvegicus. Briefly: The suppression of calcium release from bone stimulated with PTH in vitro at a concentration of 2.0 ug/mL expressed as percent inhibition of bone resorption.
The species named for test [15] is Rattus norvegicus. Briefly: The suppression of calcium release from bone stimulated with IL1-beta in vitro at a concentration of 0.4 ug/mL expressed as percent inhibition of bone resorption.
In test [16] the test system is Rattus norvegicus. As to the kind of experiment: Bone damage score on day 27(the result of radiolgic analysis of non-injected paws on day 27) the bone destruction advances in the articular of adjuvant arthritic rat at a dose of 25 mg/kg.
The species named for test [17] is Rattus norvegicus. Briefly: The suppression of calcium release from bone stimulated with PTH in vitro at a concentration of 0.4 ug/mL expressed as percent inhibition of bone resorption.
The species entered for test [18] is Rattus norvegicus. Briefly: The suppression of calcium release from bone stimulated with IL1-beta in vitro at a concentration of 2.0 ug/mL expressed as percent inhibition of bone resorption.
For test [19], the species on record is Rattus norvegicus. Briefly: The suppression of calcium release from bone stimulated with IL1-beta in vitro at a concentration of 10.0 ug/mL expressed as percent inhibition of bone resorption.
The subject of test [20] is Rattus norvegicus. Briefly: Inhibitory effect on adjuvant arthritis in rats at a dose of 6.3 mg/kg (the value is obtained by comparison between the non-injected paw volumes of the arthritic and control).
For test [21], the species on record is Rattus norvegicus. As to the kind of experiment: The suppression of calcium release from bone stimulated with PTH in vitro at a concentration of 10.0 ug/mL expressed as percent inhibition of bone resorption.
The test system of test [22] is Rattus norvegicus. Briefly: Bone damage score on day 27(the result of radiolgic analysis of non-injected paws on day 27) the bone destruction advances in the articular of adjuvant arthritic rat at a dose of 0.5 mg/kg.

Turning to `CC1CCc2cc(CC(=O)O)cc(Cl)c2N1` (stereo not given), in [1], the inhibition in vivo at 12.5 mg/kg is 42%. In test [2], this compound returned an Inhibition of 60%. In test [3], the inhibition ratio vs diclofenac worked out at 1.94. The inhibition in vivo at 25 mg/kg in test [4] worked out at 56%.
Turning to `O=C(O)Cc1cc(Cl)c2c(c1)CCC(c1ccccc1F)N2` (stereo not given), in test [5], the inhibition in vivo at 100 mg/kg is 64%. The inhibition ratio vs diclofenac in test [3] came out at 2.09. Further, the inhibition in vivo at 25 mg/kg in [6] was determined as 19%. The inhibition in vivo at 50 mg/kg in [7] came to 52%.
`CCCC1CCc2cc(CC(=O)O)cc(Cl)c2N1` (stereo not given): in test [8], the inhibition in vivo at 25 mg/kg turned out to be 47%. In addition, the inhibition ratio vs diclofenac in test [3] stood at 1.59. Also, the inhibition in vivo at 12.5 mg/kg in [9] was determined as 32%.
Consider `O=C(O)Cc1cc(Cl)c2c(c1)CCCN2`, for which the inhibition in vivo at 100 mg/kg in test [5] was 55%. Moreover, the inhibition ratio vs diclofenac in [3] was found to be 1.44. For the same compound, the inhibition in vivo at 50 mg/kg in test [7] turned out to be 20%. For the same compound, the inhibition in vivo at 10 mg/kg in [10] is 27%.
For the compound `CC1(C)CCc2cc(CC(=O)O)cc(Cl)c2N1`, the inhibition ratio vs diclofenac in test [3] was 1.22.
Regarding `O=C(O)Cc1cc(Cl)c2c(c1)CCC(C(=O)O)N2` (stereo not given), the inhibition ratio vs diclofenac in test [3] was 0.
The same measure, in the same setting: to `O=C(O)Cc1ccc2c(c1)CCCN2` belongs 1.06; to `CCC1CCc2cc(CC(=O)O)cc(Cl)c2N1` (stereo not given), 1.54.
As to `O=C(O)Cc1cc(Cl)c2c(c1)CCC(C(F)(F)F)N2` (stereo not given), the results for the Inhibition in test [2] and in test [12] (25 mg/kg) were 71% and 46%, respectively. Also, the results for the inhibition ratio vs diclofenac in test [3] and in test [11] were 1.48 and 0.99, respectively. For the same compound, the inhibition in vivo at 25 mg/kg in [12] worked out at 45%. The inhibition in vivo at 12.5 mg/kg in test [9] is 36%.
Take `CC(C)C1CCc2cc(CC(=O)O)cc(Cl)c2N1` (stereo not given): the inhibition ratio vs diclofenac in [3] is 1.1.
`O=C(O)Cc1cc(Cl)c2c(c1)CCC(c1ccccc1)N2` (stereo not given): the inhibition ratio vs diclofenac in [3] came to 1.63.
On the same count and under the same terms, as for `COc1ccc(C2CCc3cc(CC(=O)O)cc(Cl)c3N2)cc1` (stereo not given), the figure is 0.62.
In the case of `O=C(O)Cc1cc(Cl)c2c(c1)CC[C@H](C(F)(F)F)N2`, the inhibition in vivo at 12.5 mg/kg in test [13] stood at 3%. The inhibition ratio vs diclofenac amounted to 1.5 in [3] and 0.43 in test [11]. Moreover, in test [12], the inhibition in vivo at 25 mg/kg turned out to be 20%.
As to `O=C(O)Cc1cc(Cl)c2c(c1)CC[C@@H](C(F)(F)F)N2`, the Inhibition in test [14] came out at 61%; in [15], 24%; in test [17] it was 41%; in test [18] it was 78%; in [19] it was 97%; in [21] it was 94%. Besides, the inhibition ratio vs diclofenac was 1.62 in test [3] and 1.28 in test [11]. Also, the Bone damage score in [16] is on record as 2.5. Also, in [12], the inhibition in vivo at 25 mg/kg turned out to be 60%. In addition, in [9], the inhibition in vivo at 12.5 mg/kg was 34%. For the same compound, in test [20], the inhibition in vivo at 6.3 mg/kg is 25%.
Turning to `O=C([O-])Cc1ccccc1Nc1c(Cl)cccc1Cl.[Na+]` [DICLOFENAC SODIUM], the Bone damage score in test [22] worked out at 4.3.

Usually inhibition in vivo stands for the percentage by which the read-out fell short of the control. As usually defined, the Inhibition is how much of the control response was suppressed.
